Source: the NIST ThermoML archive (doi:10.1016/j.jct.2019.03.023)
Several values for one entry are separate records, joined by “and”; a condition that tells them apart may be missing. Identical values can stand only once. ± gives the expanded uncertainty stated by the source.

Assay: molar heat capacity at constant volume
Settings: Vacuum adiabatic calorimetry

CC(C)O [propan-2-ol]
Fluid (supercritical or subcritical phases)
Settings | molar heat capacity at constant volume
314.29 K, Mass density=329.2 kg/m3 | 177.46 ± 5.3 J/K/mol
314.52 K, Mass density=329.2 kg/m3 | 182.81 ± 5.5 J/K/mol
314.8 K, Mass density=329.2 kg/m3 | 184.67 ± 5.5 J/K/mol
315.05 K, Mass density=329.2 kg/m3 | 181.49 ± 5.5 J/K/mol
315.3 K, Mass density=329.2 kg/m3 | 177.88 ± 5.3 J/K/mol
315.42 K, Mass density=329.2 kg/m3 | 176.26 ± 5.3 J/K/mol
315.61 K, Mass density=329.2 kg/m3 | 174.88 ± 5.2 J/K/mol
315.8 K, Mass density=329.2 kg/m3 | 178.6 ± 5.3 J/K/mol
317.44 K, Mass density=697.69 kg/m3 | 170.85 ± 5.1 J/K/mol
317.57 K, Mass density=697.69 kg/m3 | 172.41 ± 5.2 J/K/mol
317.7 K, Mass density=697.69 kg/m3 | 172.71 ± 5.2 J/K/mol
317.95 K, Mass density=697.69 kg/m3 | 168.15 ± 5 J/K/mol
318.07 K, Mass density=697.69 kg/m3 | 168.15 ± 5 J/K/mol
318.2 K, Mass density=697.69 kg/m3 | 171.69 ± 5.2 J/K/mol
318.32 K, Mass density=697.69 kg/m3 | 171.33 ± 5.2 J/K/mol
318.45 K, Mass density=697.69 kg/m3 | 173.98 ± 5.2 J/K/mol
318.57 K, Mass density=697.69 kg/m3 | 170.25 ± 5.1 J/K/mol
318.7 K, Mass density=697.69 kg/m3 | 175.24 ± 5.3 J/K/mol
331.87 K, Mass density=697.69 kg/m3 | 192 ± 5.8 J/K/mol
332.06 K, Mass density=697.69 kg/m3 | 191.34 ± 5.8 J/K/mol
332.12 K, Mass density=697.69 kg/m3 | 189.48 ± 5.7 J/K/mol
332.24 K, Mass density=697.69 kg/m3 | 188.82 ± 5.6 J/K/mol
332.36 K, Mass density=697.69 kg/m3 | 187.74 ± 5.6 J/K/mol
332.48 K, Mass density=697.69 kg/m3 | 189.96 ± 5.7 J/K/mol
332.6 K, Mass density=697.69 kg/m3 | 190.26 ± 5.7 J/K/mol
332.72 K, Mass density=697.69 kg/m3 | 187.74 ± 5.6 J/K/mol
332.85 K, Mass density=697.69 kg/m3 | 192.36 ± 5.8 J/K/mol
333.03 K, Mass density=697.69 kg/m3 | 188.7 ± 5.6 J/K/mol
340.8 K, Mass density=697.69 kg/m3 | 195.19 ± 5.9 J/K/mol
340.92 K, Mass density=697.69 kg/m3 | 192.6 ± 5.8 J/K/mol
341.04 K, Mass density=697.69 kg/m3 | 196.99 ± 5.9 J/K/mol
341.16 K, Mass density=697.69 kg/m3 | 193.33 ± 5.8 J/K/mol
341.28 K, Mass density=697.69 kg/m3 | 197.83 ± 5.9 J/K/mol
341.4 K, Mass density=697.69 kg/m3 | 196.15 ± 5.9 J/K/mol
341.52 K, Mass density=697.69 kg/m3 | 194.89 ± 5.8 J/K/mol
341.64 K, Mass density=697.69 kg/m3 | 195.13 ± 5.9 J/K/mol
341.76 K, Mass density=697.69 kg/m3 | 196.21 ± 5.9 J/K/mol
341.91 K, Mass density=329.2 kg/m3 | 203.12 ± 6.1 J/K/mol
342.08 K, Mass density=329.2 kg/m3 | 202.22 ± 6.1 J/K/mol
342.19 K, Mass density=329.2 kg/m3 | 203.54 ± 6.1 J/K/mol
342.32 K, Mass density=329.2 kg/m3 | 207.27 ± 6.2 J/K/mol
342.49 K, Mass density=329.2 kg/m3 | 201.32 ± 6.1 J/K/mol
342.67 K, Mass density=329.2 kg/m3 | 203.72 ± 6.1 J/K/mol
342.79 K, Mass density=329.2 kg/m3 | 202.76 ± 6.1 J/K/mol
342.91 K, Mass density=329.2 kg/m3 | 201.62 ± 6.1 J/K/mol
343.03 K, Mass density=329.2 kg/m3 | 204.08 ± 6.1 J/K/mol
355.67 K, Mass density=697.69 kg/m3 | 207.33 ± 6.2 J/K/mol
355.78 K, Mass density=697.69 kg/m3 | 211.29 ± 6.4 J/K/mol
355.9 K, Mass density=697.69 kg/m3 | 211.9 ± 6.4 J/K/mol
356.02 K, Mass density=697.69 kg/m3 | 209.49 ± 6.3 J/K/mol
356.13 K, Mass density=697.69 kg/m3 | 211.11 ± 6.4 J/K/mol
356.25 K, Mass density=697.69 kg/m3 | 212.68 ± 6.4 J/K/mol
356.37 K, Mass density=697.69 kg/m3 | 211.77 ± 6.4 J/K/mol
356.48 K, Mass density=697.69 kg/m3 | 211.96 ± 6.4 J/K/mol
369.05 K, Mass density=329.2 kg/m3 | 225.9 ± 6.8 J/K/mol
369.16 K, Mass density=329.2 kg/m3 | 220.01 ± 6.6 J/K/mol
369.28 K, Mass density=329.2 kg/m3 | 231.31 ± 7 J/K/mol
369.39 K, Mass density=329.2 kg/m3 | 222.83 ± 6.7 J/K/mol
369.5 K, Mass density=329.2 kg/m3 | 225.96 ± 6.8 J/K/mol
369.67 K, Mass density=329.2 kg/m3 | 223.55 ± 6.7 J/K/mol
369.84 K, Mass density=329.2 kg/m3 | 221.75 ± 6.7 J/K/mol
369.96 K, Mass density=329.2 kg/m3 | 221.03 ± 6.6 J/K/mol
370.07 K, Mass density=329.2 kg/m3 | 219.47 ± 6.6 J/K/mol
370.24 K, Mass density=697.69 kg/m3 | 222.11 ± 6.7 J/K/mol
370.36 K, Mass density=697.69 kg/m3 | 222.41 ± 6.7 J/K/mol
370.47 K, Mass density=697.69 kg/m3 | 220.43 ± 6.6 J/K/mol
370.58 K, Mass density=697.69 kg/m3 | 219.77 ± 6.6 J/K/mol
370.7 K, Mass density=697.69 kg/m3 | 222.05 ± 6.7 J/K/mol
370.81 K, Mass density=697.69 kg/m3 | 222.29 ± 6.7 J/K/mol
370.92 K, Mass density=697.69 kg/m3 | 220.61 ± 6.6 J/K/mol
371.04 K, Mass density=697.69 kg/m3 | 221.57 ± 6.7 J/K/mol
378.45 K, Mass density=697.69 kg/m3 | 221.99 ± 6.7 J/K/mol
378.57 K, Mass density=697.69 kg/m3 | 220.67 ± 6.6 J/K/mol
378.68 K, Mass density=697.69 kg/m3 | 223.19 ± 6.7 J/K/mol
378.79 K, Mass density=697.69 kg/m3 | 223.37 ± 6.7 J/K/mol
378.9 K, Mass density=697.69 kg/m3 | 220.97 ± 6.6 J/K/mol
379.01 K, Mass density=697.69 kg/m3 | 222.41 ± 6.7 J/K/mol
379.24 K, Mass density=697.69 kg/m3 | 222.71 ± 6.7 J/K/mol
379.35 K, Mass density=697.69 kg/m3 | 221.33 ± 6.7 J/K/mol
379.46 K, Mass density=697.69 kg/m3 | 221.99 ± 6.7 J/K/mol
379.57 K, Mass density=697.69 kg/m3 | 220.55 ± 6.6 J/K/mol
379.68 K, Mass density=697.69 kg/m3 | 222.53 ± 6.7 J/K/mol
379.79 K, Mass density=697.69 kg/m3 | 221.81 ± 6.7 J/K/mol
379.9 K, Mass density=697.69 kg/m3 | 222.53 ± 6.7 J/K/mol
380.02 K, Mass density=697.69 kg/m3 | 224.03 ± 6.7 J/K/mol
380.13 K, Mass density=697.69 kg/m3 | 223.07 ± 6.7 J/K/mol
380.24 K, Mass density=697.69 kg/m3 | 222.05 ± 6.7 J/K/mol
380.35 K, Mass density=697.69 kg/m3 | 223.97 ± 6.7 J/K/mol and 182.81 ± 5.5 J/K/mol
380.42 K, Mass density=697.69 kg/m3 | 185.51 ± 5.6 J/K/mol
380.56 K, Mass density=697.69 kg/m3 | 185.69 ± 5.6 J/K/mol
380.68 K, Mass density=697.69 kg/m3 | 187.44 ± 5.6 J/K/mol

Settings | molar heat capacity at constant volume [J/K/mol]
380.35 K, Liquid | 182.81 ± 5.5
